Tests used:
[1] = tested on: Aspergillus fumigatus (ATCC 13073); assay: Macrophage and neutrophil accumulation into BALF of Aspergillus fumigatus infected mice; format: in vivo
Protocol: (§1) Aspergillus fumigatus (ATCC 13073 [strain: NIH 5233], American Type Culture Collection, Manassas, Va., USA) was grown on Malt agar (Nissui Pharmaceutical, Tokyo, Japan) plates for 6-7 days at RT (24±1° C.). Spores were aseptically dislodged from the agar plates and suspended in sterile distilled water with 0.05% Tween 80 and 0.1% agar. On the day of infection, spore counts were assessed by haemocytometer and the inoculum was adjusted to obtain a concentration of 1.67×10^8 spores mL^−1 of physiological saline.
(§2) On day 0, animals were infected with the spore suspension (35 μL intra-nasally).
(§3) Test compounds were administered intra-nasally ([…]) once daily, 30 min before infection on day 0 and then on days 1, 2 and 3 (representing prophylactic treatment) or on days 1, 2 and 3 only (representing therapeutic treatment). For extended prophylactic treatment, test compounds (35 μL of a suspension of 0.0032 or 0.016 mg/mL in physiological saline) were administered intra-nasally once daily for seven days; then 30 min before infection on day 0, and thereafter, either on days 1, 2 and 3 after infection, or on day 0 only. The effects of these treatment paradigms were compared with those obtained when treatment was restricted to one day and 30 min before inoculation and then on days 1, 2 and 3 post infection; or reduced still further to one day and 30 min before infection only.
(§4) Six hours after the last dose, animals were anesthetised, the trachea was cannulated and BALF was collected. The total number of alveolar cells was determined using a haemocytometer, and the numbers of alveolar macrophages and neutrophils were determined by FACS analysis (EPICS® ALTRA II, Beckman Coulter, Inc., Fullerton, Calif., USA) using anti-mouse MOMA2-FITC (macrophage) or anti-mouse 7/4 (neutrophil), respectively, as previously reported (Kimura et al., 2013). The levels of IFN-γ and IL-17 in BALF, and IL-6 and TNFα in serum were determined using Quantikine® mouse IFN-γ, IL-17, IL-6 or TNF-α ELISA kit (R&D systems, Inc., Minneapolis, Minn., USA) respectively. MDA, an oxidative stress marker, was assayed using OxiSelect® TBARS Assay Kits (MDA Quantitation; Cell Biolabs Inc, San Diego, Calif., USA). Aspergillus GM in serum was determination using Platelia GM-EIA kits (Bio-Rad Laboratories, Redmond, Wash., USA). Cut-off index was calculated by the formula: Cut-off index=OD in sample/OD in cut-off control provided in kit. For tissue fungal load assays, 100 mg of lung tissue was removed aseptically and homogenized in 0.2 mL of 0.1% agar in sterile distilled water. Serially diluted lung homogenates were plated on Malt agar plates (50 μL/plate), and incubated at 24±1° C. for 72 to 96 h. The colonies of A. fumigatus on each plate was counted and the fungal titre presented as CFU per gram of lung tissue.

[2] = tested on: Aspergillus fumigatus (ATCC 13073); assay: IL-6 and TNFα levels in serum of Aspergillus fumigatus infected mice; format: in vivo
Protocol: as §1, §2, §3, §4

[3] = Prophylactic Treatment, 0.08 mg/mL intra-nasally
[4] = Prophylactic Treatment, 0.4 mg/mL intra-nasally
[5] = Prophylactic Treatment, 2 mg/mL intra-nasally
[6] = Therapeutic Treatment, 0.4 mg/mL intra-nasally
[7] = Therapeutic Treatment, 2 mg/mL intra-nasally
[8] = Therapeutic Treatment, 10 mg/mL intra-nasally

Cc1cc(N2CCN(c3ccc(C(=O)Nc4ccc(F)cc4)cc3)CC2)ccc1OC[C@@H]1CO[C@@](Cn2cncn2)(c2ccc(F)cc2F)C1 [Compound (I), 4-(4-(4-(((3R,5R)-5-((1H-1,2,4-triazol-1-yl)methyl)-5-(2,4-difluorophenyl)tetrahydrofuran-3-yl)methoxy)-3-methylphenyl)piperazin-1-yl)-N-(4-fluorophenyl)benzamide]
Macrophage cell numbers in BAL [1, 3]: 0.40 ± 0.15 × 10^5/mL
Macrophage cell numbers in BAL, % inhibition [1, 3]: 38%
Neutrophil cell numbers in BAL [1, 3]: 0.37 ± 0.04 × 10^5/mL
Neutrophil cell numbers in BAL, % inhibition [1, 3]: 24%
Macrophage cell numbers in BAL [1, 4]: 0.32 ± 0.07 × 10^5/mL
Macrophage cell numbers in BAL, % inhibition [1, 4]: 51%
Neutrophil cell numbers in BAL [1, 4]: 0.26 ± 0.12 × 10^5/mL
Neutrophil cell numbers in BAL, % inhibition [1, 4]: 47%
Macrophage cell numbers in BAL [1, 5]: 0.26 ± 0.05 × 10^5/mL
Macrophage cell numbers in BAL, % inhibition [1, 5]: 60%
Neutrophil cell numbers in BAL [1, 5]: 0.22 ± 0.04 × 10^5/mL
Neutrophil cell numbers in BAL, % inhibition [1, 5]: 55%
Macrophage cell numbers in BAL [1, 6]: 0.43 ± 0.05 × 10^5/mL
Macrophage cell numbers in BAL, % inhibition [1, 6]: 34%
Neutrophil cell numbers in BAL [1, 6]: 0.38 ± 0.04 × 10^5/mL
Neutrophil cell numbers in BAL, % inhibition [1, 6]: 22%
Macrophage cell numbers in BAL [1, 7]: 0.40 ± 0.11 × 10^5/mL
Macrophage cell numbers in BAL, % inhibition [1, 7]: 38%
Neutrophil cell numbers in BAL [1, 7]: 0.34 ± 0.05 × 10^5/mL
Neutrophil cell numbers in BAL, % inhibition [1, 7]: 31%
Macrophage cell numbers in BAL [1, 8]: 0.32 ± 0.07 × 10^5/mL
Macrophage cell numbers in BAL, % inhibition [1, 8]: 51%
Neutrophil cell numbers in BAL [1, 8]: 0.27 ± 0.08 × 10^5/mL
Neutrophil cell numbers in BAL, % inhibition [1, 8]: 45%
IL-6 concentration in serum [2, 3]: 159 ± 73.3 pg/mL
IL-6 in serum, % Inhibition [2, 3]: 44%
TNFα concentration in serum [2, 3]: 11.8 ± 5.9 pg/mL
TNFα in serum, % Inhibition [2, 3]: 54%
IL-6 concentration in serum [2, 4]: 86.3 ± 46.9 pg/mL
IL-6 in serum, % Inhibition [2, 4]: 70%
TNFα concentration in serum [2, 4]: 7.3 ± 3.5 pg/mL
TNFα in serum, % Inhibition [2, 4]: 71%
IL-6 concentration in serum [2, 5]: 44.5 ± 12.2 pg/mL
IL-6 in serum, % Inhibition [2, 5]: 84%
TNFα concentration in serum [2, 5]: 4.7 ± 0.4 pg/mL
TNFα in serum, % Inhibition [2, 5]: 82%
IL-6 concentration in serum [2, 6]: 51.7 ± 16.8 pg/mL
IL-6 in serum, % Inhibition [2, 6]: 82%
TNFα concentration in serum [2, 6]: 6.2 ± 0.5 pg/mL
TNFα in serum, % Inhibition [2, 6]: 76%
IL-6 concentration in serum [2, 7]: 44.2 ± 11.4 pg/mL
IL-6 in serum, % Inhibition [2, 7]: 84%
TNFα concentration in serum [2, 7]: 5.5 ± 0.7 pg/mL
TNFα in serum, % Inhibition [2, 7]: 79%
IL-6 concentration in serum [2, 8]: 35.9 ± 10.4 pg/mL
IL-6 in serum, % Inhibition [2, 8]: 87%
TNFα concentration in serum [2, 8]: 4.9 ± 0.6 pg/mL
TNFα in serum, % Inhibition [2, 8]: 81%

From patent US20210238169A1, “PROCESS FOR PREPARING A COMPOUND OF FORMULA (XIII)” (PULMOCIDE LIMITED, priority 2014, published 2021)
